Test: Microsomal stability, human liver microsomes
Type: in vitro ADME
Settings: human liver microsomes 0.5 mg protein/mL, 1 μM test compound, NADPH, 37° C., 60 min; read-out: HLM Clint
Method: (§1) Test compound and control working solution preparation. 5 μL of a compound and control stock solution (10 mM in dimethyl sulfoxide (DMSO)) were diluted with 495 μL of acetonitrile (ACN).
(§2) NADPH cofactor preparation. The appropriate amount of NADPH powder was weighed and diluted into a 10 mM MgCl2 solution (working solution concentration: 10 mM; final concentration in reaction system: 1 mM). Materials: NADPH powder: β-Nicotinamide adenine dinucleotide phosphate reduced form, tetrasodium salt; NADPHA4Na (Vendor: Chem-Impex International, Cat. No. 00616).
(§3) Liver Microsome Preparation. The appropriate concentrations of microsome working solutions were prepared in 100 mM potassium phosphate buffer. Materials: Human Liver Microsomes (HLM) Cat No. 452117 and Lot No. 38295 (Corning); SD Rat Liver Microsomes (RLM) Cat No. R1000 and Lot No. 1910100 (Xenotech).
(§4) Stop solution preparation. Cold (4° C.) acetonitrile (ACN) containing 200 ng/mL tolbutamide and 200 ng/mL labetalol as internal standards (IS) were used as the stop solution.
(§5) Assay Procedure. Empty incubation plates (T60 and NCF60) were warmed for 10 mins prior to use. Liver microsomes were diluted to 0.56 mg/mL in 100 mM phosphate buffer. 445 uL microsome working solutions (0.56 mg/mL) were transferred into pre-warmed ‘Incubation’ plates T60 and NCF60, Then ‘Incubation’ plates T60 and NCF60 were pre-incubated for 10 min at 37° C. with constant shaking. 54 μL liver microsomes were transferred to the blank plate, then 6 μL NAPDH cofactor were added to the blank plate, followed by the addition 180 μL quenching solution to the blank plate. 5 μL compound working solution (100 μM) were added into ‘incubation’ plates (T60 and NCF60) containing microsomes and mixed thoroughly 3 times. To the NCF60 plate 50 μL of buffer were added and mixed 3 times thoroughly. Start timing; plate was incubated at 37° C. for 60 min while shaking. In ‘Quenching’ plate TO, were added 180 μL quenching solution and 6 μL NAPDH cofactor. Plate is chilled to prevent evaporation. The T60 plate, was mixed 3 times thoroughly, and immediately 54 μL of the mixture was removed for the 0-min time point to ‘Quenching’ plate. Then 44 μL NAPDH cofactor was added to the incubation plate (T60). Start timing; plate was incubated at 37° C. for 60 min while shaking. Final concentrations of each component in the incubation media: Microsome (0.5 mg protein/mL); Test compound (1 μM); control compound ([…]); ACN (0.99%); and DMSO (0.01%). At 5, 15, 30, 45, and 60 min, 180 μL quenching solution was added to ‘Quenching’ plates, mixed once, and serially transferred 60 μL of sample from T60 plate per time point to ‘Quenching’ plates. For the NCF60 plate, mix once and 60 μL of sample was transferred from the NCF60 incubation to ‘Quenching’ plate containing quenching solution at the 60-min time point (Start time 1:00:00 and End Time 0:00:00).
(§6) All sampling plates were shaken for 10 min, then centrifuged at 4000 rpm for 20 minutes at 4° C. 80 μL of supernatant were transferred into 240 μL HPLC water, and mixed by plate shaker for 10 min. Each bioanalysis plate was sealed and shaken for 10 minutes prior to LC-MS/MS analysis.

SMILES | microsomal CLint at 1 μM
CCn1nccc1C(=O)N[C@H](C(=O)Nc1ccc([C@H](C)[C@@H](NC(=O)N(C)C2CC2)C(=O)N2CCN(C)CC2)cc1F)[C@H]1CC[C@H](C)CC1 [J, reference compound] | > 150 µL/min/mg
CCC(=O)N[C@@H](C(=O)N1CCN(C)[C@@H](C)C1)[C@@H](C)c1ccc(NC(=O)[C@@H](NC(=O)c2ccnn2CC)[C@H]2CC[C@H](C)CC2)c(F)c1 [I, reference compound] | > 150 µL/min/mg
CCC(=O)N[C@@H](C(=O)N1C[C@@H](C)N(C)C[C@H]1C)[C@@H](C)c1ccc(NC(=O)[C@@H](NC(=O)c2ccnn2CC)[C@H]2CC[C@H](C)CC2)c(F)c1 [A, reference compound] | 50 to 150 µL/min/mg
CCn1nccc1C(=O)N[C@H](C(=O)Nc1ccc([C@H](C)[C@@H](NC(C)=O)C(=O)N2CCN(C)[C@H](C)C2)cc1F)[C@H]1CC[C@H](C)CC1 [C, reference compound] | > 150 µL/min/mg
CCC(=O)N[C@@H](C(=O)N1CCN(C)CC1)[C@@H](C)c1ccc(NC(=O)[C@@H](NC(=O)c2ccnn2C(C)C)[C@H]2CC[C@H](C)CC2)c(F)c1 [L, reference compound] | > 150 µL/min/mg
CCC(=O)N[C@@H](C(=O)N1CCN(C)[C@H](C)C1)[C@@H](C)c1ccc(NC(=O)[C@@H](NC(=O)c2ccnn2CCF)[C@H]2CC[C@H](C)CC2)c(F)c1 [F, reference compound] | 50 to 150 µL/min/mg
CCn1nccc1C(=O)N[C@H](C(=O)Nc1ccc([C@H](C)[C@@H](NC(=O)COC)C(=O)N2CCN(C)[C@@H](CF)C2)cc1F)[C@H]1CC[C@H](C)CC1 [B, reference compound] | 50 to 150 µL/min/mg
CCn1nccc1C(=O)N[C@H](C(=O)Nc1ccc([C@H](C)[C@@H](NC(=O)COC)C(=O)N2CCN(C)[C@H](C)C2)cc1F)[C@H]1CC[C@H](C)CC1 [D, reference compound] | 50 to 150 µL/min/mg
CCn1nccc1C(=O)N[C@H](C(=O)Nc1ccc([C@H](C)[C@@H](NC(=O)COC)C(=O)N2CCN(C)CC2)cc1F)[C@H]1CC[C@H](C)CC1 [K, reference compound] | > 150 µL/min/mg
CCC(=O)N[C@@H](C(=O)N1CCN(C)[C@H](C)C1)[C@@H](C)c1ccc(NC(=O)[C@@H](NC(=O)c2ccnn2CC(F)F)[C@H]2CC[C@H](C)CC2)c(F)c1 [E, reference compound] | > 150 µL/min/mg

Test: Microsomal stability, rat liver microsomes
Type: in vitro ADME
Settings: SD rat liver microsomes 0.5 mg protein/mL, 1 μM test compound, NADPH, 37° C., 60 min; read-out: RLM Clint
Method: as §1, §2, §3, §4, §5, §6

SMILES | microsomal CLint at 1 μM
CCn1nccc1C(=O)N[C@H](C(=O)Nc1ccc([C@H](C)[C@@H](NC(=O)N(C)C2CC2)C(=O)N2CCN(C)CC2)cc1F)[C@H]1CC[C@H](C)CC1 [J, reference compound] | > 20 µL/min/mg
CCC(=O)N[C@@H](C(=O)N1CCN(C)[C@@H](C)C1)[C@@H](C)c1ccc(NC(=O)[C@@H](NC(=O)c2ccnn2CC)[C@H]2CC[C@H](C)CC2)c(F)c1 [I, reference compound] | 9.6 to 20 µL/min/mg
CCC(=O)N[C@@H](C(=O)N1C[C@@H](C)N(C)C[C@H]1C)[C@@H](C)c1ccc(NC(=O)[C@@H](NC(=O)c2ccnn2CC)[C@H]2CC[C@H](C)CC2)c(F)c1 [A, reference compound] | > 20 µL/min/mg
CCn1nccc1C(=O)N[C@H](C(=O)Nc1ccc([C@H](C)[C@@H](NC(C)=O)C(=O)N2CCN(C)[C@H](C)C2)cc1F)[C@H]1CC[C@H](C)CC1 [C, reference compound] | > 20 µL/min/mg
CCC(=O)N[C@@H](C(=O)N1CCN(C)CC1)[C@@H](C)c1ccc(NC(=O)[C@@H](NC(=O)c2ccnn2C(C)C)[C@H]2CC[C@H](C)CC2)c(F)c1 [L, reference compound] | 9.6 to 20 µL/min/mg
CCC(=O)N[C@@H](C(=O)N1CCN(C)[C@H](C)C1)[C@@H](C)c1ccc(NC(=O)[C@@H](NC(=O)c2ccnn2CCF)[C@H]2CC[C@H](C)CC2)c(F)c1 [F, reference compound] | 9.6 to 20 µL/min/mg
CCn1nccc1C(=O)N[C@H](C(=O)Nc1ccc([C@H](C)[C@@H](NC(=O)COC)C(=O)N2CCN(C)[C@@H](CF)C2)cc1F)[C@H]1CC[C@H](C)CC1 [B, reference compound] | 9.6 to 20 µL/min/mg
CCn1nccc1C(=O)N[C@H](C(=O)Nc1ccc([C@H](C)[C@@H](NC(=O)COC)C(=O)N2CCN(C)[C@H](C)C2)cc1F)[C@H]1CC[C@H](C)CC1 [D, reference compound] | 9.6 to 20 µL/min/mg
CCn1nccc1C(=O)N[C@H](C(=O)Nc1ccc([C@H](C)[C@@H](NC(=O)COC)C(=O)N2CCN(C)CC2)cc1F)[C@H]1CC[C@H](C)CC1 [K, reference compound] | < 9.6 µL/min/mg
CCC(=O)N[C@@H](C(=O)N1CCN(C)[C@H](C)C1)[C@@H](C)c1ccc(NC(=O)[C@@H](NC(=O)c2ccnn2CC(F)F)[C@H]2CC[C@H](C)CC2)c(F)c1 [E, reference compound] | 9.6 to 20 µL/min/mg

Test: Rat pharmacokinetics, PO
Type: in vivo
Settings: male rat, PO 5 mg/kg oral gavage, plasma, Linear/log trapezoidal; read-out: Rat PO AUC0-t
Method: Formulations for PO. An appropriate amount of the test article is weighed and mixed with the appropriate volume of vehicle to get a clear solution or a uniform suspension, vortexing or sonication in water bath may used. Animals are dosed within four hours after the formulation is prepared.
Formulation samples are removed from each of the formulation solutions or suspensions, transferred into 1.5 mL of polypropylene microcentrifuge tubes and run dose validated by LC/UV or LC-MS/MS.
Dose administration. For PO dosing, the dose formulation is administered via oral gavage.
Blood Collection. Each blood collection (about 0.2 mL per time point) is performed from carotid artery cannula (CAC) of each animal into a pre-chilled commercial EDTA-K2 tubes as anti-coagulant, then placed on wet ice until centrifugation. Blood samples are processed for plasma by centrifugation at approximately 4° C., 3,200 g for 10 min. Plasma is collected respectively and a certain amount of plasma from rat is transferred into pre-labeled 96 well plate or polypropylene tubes, quick frozen over dry ice and kept at −60° C. or lower until LC-MS/MS analysis. After terminal collection, all plasmas are stored at approximately −80° C. freezer until final analysis.
Plasma concentration versus time data are plotted in graph and analyzed by non-compartmental approaches using the Phoenix WinNonlin 6.3 software program. Trapezoids: Before TMax (Linear); After Tmax (Log). Partial Area Interpolations: Before TMax (Linear); After Tmax (Log).

SMILES | AUC(0-t)
CCn1nccc1C(=O)N[C@H](C(=O)Nc1ccc([C@H](C)[C@@H](NC(=O)N(C)C2CC2)C(=O)N2CCN(C)CC2)cc1F)[C@H]1CC[C@H](C)CC1 [J, reference compound] | < 500 ng·h/mL
CCC(=O)N[C@@H](C(=O)N1CCN(C)[C@@H](C)C1)[C@@H](C)c1ccc(NC(=O)[C@@H](NC(=O)c2ccnn2CC)[C@H]2CC[C@H](C)CC2)c(F)c1 [I, reference compound] | < 500 ng·h/mL
CCC(=O)N[C@@H](C(=O)N1C[C@@H](C)N(C)C[C@H]1C)[C@@H](C)c1ccc(NC(=O)[C@@H](NC(=O)c2ccnn2CC)[C@H]2CC[C@H](C)CC2)c(F)c1 [A, reference compound] | 500 to 1000 ng·h/mL
CCn1nccc1C(=O)N[C@H](C(=O)Nc1ccc([C@H](C)[C@@H](NC(C)=O)C(=O)N2CCN(C)[C@H](C)C2)cc1F)[C@H]1CC[C@H](C)CC1 [C, reference compound] | < 500 ng·h/mL
CCC(=O)N[C@@H](C(=O)N1CCN(C)CC1)[C@@H](C)c1ccc(NC(=O)[C@@H](NC(=O)c2ccnn2C(C)C)[C@H]2CC[C@H](C)CC2)c(F)c1 [L, reference compound] | 500 to 1000 ng·h/mL
CCC(=O)N[C@@H](C(=O)N1CCN(C)[C@H](C)C1)[C@@H](C)c1ccc(NC(=O)[C@@H](NC(=O)c2ccnn2CCF)[C@H]2CC[C@H](C)CC2)c(F)c1 [F, reference compound] | 500 to 1000 ng·h/mL
CCn1nccc1C(=O)N[C@H](C(=O)Nc1ccc([C@H](C)[C@@H](NC(=O)COC)C(=O)N2CCN(C)[C@@H](CF)C2)cc1F)[C@H]1CC[C@H](C)CC1 [B, reference compound] | < 500 ng·h/mL
CCn1nccc1C(=O)N[C@H](C(=O)Nc1ccc([C@H](C)[C@@H](NC(=O)COC)C(=O)N2CCN(C)[C@H](C)C2)cc1F)[C@H]1CC[C@H](C)CC1 [D, reference compound] | 500 to 1000 ng·h/mL
CCn1nccc1C(=O)N[C@H](C(=O)Nc1ccc([C@H](C)[C@@H](NC(=O)COC)C(=O)N2CCN(C)CC2)cc1F)[C@H]1CC[C@H](C)CC1 [K, reference compound] | 500 to 1000 ng·h/mL
CCC(=O)N[C@@H](C(=O)N1CCN(C)[C@H](C)C1)[C@@H](C)c1ccc(NC(=O)[C@@H](NC(=O)c2ccnn2CC(F)F)[C@H]2CC[C@H](C)CC2)c(F)c1 [E, reference compound] | 500 to 1000 ng·h/mL

From US20250177383A1, “DI-CYCLOPROPYL BASED IL-17A MODULATORS AND USES THEREOF” (DICE ALPHA, INC., priority 2022, published 2025)
